Series [1] concerns 3T3SA. Description: Induction of apoptosis in mouse 3T3SA cells assessed as cell death by measuring percent of PI positive cells incubated for 3 hrs in presence of TNF by PI staining based flow cytometric analysis (reference value: 10.7%). Type of series: toxicity. In general terms: A flow cytometer gives signals particle by particle.
Series [2] deals with 3T3SA. The series is described as follows: Induction of apoptosis in mouse 3T3SA cells assessed as cell death by measuring percent of PI positive cells incubated for 8 hrs in presence of TNF by PI staining based flow cytometric analysis (reference value: 11.4%). Type of series: toxicity.
Series [3] relates to SVEC4-10. Description: Inhibition of TNF-induced necroptosis in mouse SVEC4-10 cells assessed as increase in cell viability incubated for 18 hrs in presence of zVAD by Cell Titer-Glo luminescent cell viability assay. The format is functional, cell-based.
Series [4] has as its system L929. The series is described as follows: Inhibition of TNF-alpha induced necroptosis in mouse L929 cells assessed as increase in cell viability at 30 uM incubated for 18 hrs in presence of zVAD by Cell Titer-Glo luminescent cell viability assay. Type of series: functional, cell-based. (ATP-based viability assays read luminescence as a measure of living cells.)
Series [5] relates to L929. The series is described as follows: Inhibition of TLR-3 induced necroptosis in mouse L929 cells assessed as increase in cell viability at 30 uM incubated for 18 hrs in presence of zVAD and poly(I:C) by Cell Titer-Glo luminescent cell viability assay. Type of series: functional, cell-based.
Series [6] deals with SVEC4-10. The series is described as follows: Inhibition of DAI-induced necroptosis in MCMV M45mutRHIM infected mouse SVEC4-10 cells assessed as increase in cell viability incubated for 18 hrs by Cell Titer-Glo luminescent cell viability assay. Type of series: functional, cell-based.
Series [7] has as its system L929. The series is described as follows: Inhibition of TNF-alpha induced necroptosis in mouse L929 cells assessed as increase in cell viability at 10 uM incubated for 18 hrs in presence of zVAD by Cell Titer-Glo luminescent cell viability assay. The format is functional, cell-based.
Series [8] has as its system L929. The series is described as follows: Inhibition of TLR-3 induced necroptosis in mouse L929 cells assessed as increase in cell viability at 10 uM incubated for 18 hrs in presence of zVAD and poly(I:C) by Cell Titer-Glo luminescent cell viability assay. The format is functional, cell-based.

Calls of active or inactive are those of the source. No cut-off for these calls is given here.

Turning to `C[C@@H]1CC([C@H](O)CC2CC(=O)NC(=O)C2)C(=O)[C@@H](C)C1` (stereo not given in full), the Activity stood at 22% in the series with 3T3SA [1] and 60% in the series on 3T3SA [2].

For the compound `CN1C(=O)C(Cc2c[nH]c3ccccc23)NC1=S` (stereo not given), the inhibition entry in the series with SVEC4-10 [3] and in the series on L929 [4] was “Active” in each case. Moreover, the inhibition result in the series on L929 [5] and in the series with SVEC4-10 [6] was “inactive” throughout.

Regarding `CC(C)(C)C(=O)N1N=CC[C@H]1c1ccccc1`, the inhibition entry in the series on SVEC4-10 [3] and in the series on L929 [7] was “Active” each time. Further, the inhibition result in the series with L929 [8] and with SVEC4-10 [6] was “inactive” throughout.

Source of the values: ChEMBL document CHEMBL5649166, “RIP3 induces apoptosis independent of pronecrotic kinase activity” (Mol Cell, 2014).
